Laboratory results: PMC9042912, “T cell receptor and IL-2 signaling strength control memory CD8^+ T cell functional fitness via chromatin remodeling” (Nature Communications, 2022)
No end group written: not given here.

Target: T1, H2-K^b (Mus musculus, UniProt P01901)
T1 construct: RMA-S cells were added per well to a 96-well flat-bottom plate and incubated at 30 °C overnight; endogenous in cells; host or cells: RMA-S cells (TAP-deficient), obtained from Dr. Steve Porcelli
T1 sequence (P01901 22-369): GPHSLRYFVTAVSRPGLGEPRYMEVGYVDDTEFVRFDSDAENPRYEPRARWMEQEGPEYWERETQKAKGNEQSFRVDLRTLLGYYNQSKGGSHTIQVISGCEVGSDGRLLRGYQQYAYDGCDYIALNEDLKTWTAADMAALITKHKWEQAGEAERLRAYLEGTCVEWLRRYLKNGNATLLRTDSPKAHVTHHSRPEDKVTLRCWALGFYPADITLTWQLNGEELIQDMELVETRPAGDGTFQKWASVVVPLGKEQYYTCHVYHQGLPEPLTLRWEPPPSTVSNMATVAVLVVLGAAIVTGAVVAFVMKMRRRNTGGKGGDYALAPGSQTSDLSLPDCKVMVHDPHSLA
T1 sequence (P01887 21-119 partner): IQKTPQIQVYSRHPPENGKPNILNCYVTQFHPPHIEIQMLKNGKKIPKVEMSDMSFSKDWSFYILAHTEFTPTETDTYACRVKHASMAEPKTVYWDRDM
Assay: cell-based

Q: With SIINFEKA [A8] as the sequence, how does the Kd read?
A: The Kd was 351 nM.
